Here are results for 17 molecules from patent US6756374B2, “Diaminothiazoles having antiproliferative activity” (Hoffmann-La Roche Inc., priority 2001, dated 2004).

The target of one experiment is human cyclin E-CDK2 (Homo sapiens, UniProt P24941). As to the kind of experiment: FlashPlate kinase assay, cyclin E-CDK2. In kind it is biochemical. Particulars: Rb protein substrate, 1 μM ATP. Here is the method:
(§1) To determine inhibition of Cdk4, Cdk2 and Cdk1 activity, kinase assays were conducted using FlashPlate™ assays (NEN™-Life Science Products). FlashPlate assays were performed using recombinant human cyclin B-CDK1, human cyclin E-CDK2 or human cyclin D1-CDK4 complexes. GST-cyclinE (GST-cycE), CDK2, GST-cyclinB (GST-cycB), CDK1, GST-CDK4 and cyclin D1 (cycD1) cDNA clones in baculovirus vectors were provided by Dr. W. Harper at the Baylor College of Medicine, Houston, Tex.
(§2) The expression of the 62Kd protein was under the control of an IPTG inducible promoter in an M15 E. coli strain. Cells were lysed by sonication and purification was carried out by binding lysates at pH 8.0 to a Ni-chelated agarose column pretreated with 1 mM imidazole. The resin was then washed several times with incrementally decreasing pH buffers to pH 6.0, and eluted with 500 mM imidazole. Eluted protein was dialysed against 20 mM HEPES pH 7.5, 30% glycerol, 200 mM NaCl, and 1 mM DTT. Purified Rb fusion protein stocks were quantitated for protein concentration, aliquoted, and stored at −70° C.
(§3) For all three kinase assays reported herein, 96-well FlashPlates were coated with Rb protein at 10 μg/ml, using 100 μl per well. Plates were incubated at 4° C. overnight or at room temperature for 3 hours on a shaker. To control for nonspecific phosphorylation, one row of wells was coated with 100 μl/well coating buffer (20 mM HEPES, 0.2 M NaCl). Plates were then washed twice with wash buffer (0.01% Tween 20 in phosphate-buffered saline). Compounds to be tested (“test compounds”) were added to the wells at 5×final concentration. Reactions were initiated by immediate addition of 40 μl reaction mix (25 mM HEPES, 20 mM MgCl2, 0.002% Tween 20, 2 mM DTT, 1 μM ATP, 4 nM ^33P-ATP) and a sufficient amount of enzyme to give counts that were at least 10-fold above background. Plates were incubated at room temperature on a shaker for 30 minutes. Plates were washed four times with the wash buffer, sealed, and counted on the TopCount scintillation counter (Packard Instrument Co., Downers Grove, Ill.]. The percent inhibition of Rb phosphorylation, which is a measure of the inhibition of CDK activity, was determined according to the following formula: [formula]
(§4) where “test compound” refers to the average counts per minute of the test duplicates, “nonspecific” refers to the average counts per minute when no CyclinD/Cdk4, etc., was added, and “total” refers to the average counts per minute when no compound was added.

The next experiment concerns HCT116. Nature of the experiment: Tetrazolium dye (MTT) proliferation assay. The conditions noted are these: Homo sapiens, HCT-116; HCT116 colorectal carcinoma cell line. In kind it is cell-based. Here is the method:
The cell line used was HCT116, a colorectal carcinoma cell line obtained from the American Type Cell Culture Collection (ATCC;
Rockville, Md.). The cells were grown in McCoy's 5A medium supplemented with 10% FCS and L-glutamine.
Cells were plated at the appropriate seeding density to give logarithmic growth over the course of the assay in a 96-well tissue culture plate. Plates were incubated overnight at 37° C. in a humidified incubator with 5% CO2. The next day, test compounds were serially diluted to four times the final concentration in the appropriate medium containing 1.2% DMSO. One-fourth final volume of each dilution was added in duplicate to the plates containing cells. The same volume of 1.2% DMSO in medium was added to a row of “control wells” such that the final concentration of DMSO in each well was 0.3%. Wells to which no cells were added served as the “blank.” Wells to which no inhibitor was added served as “no inhibitor control.” The plates were) returned to the incubator, and at set time points (determined by their growth curves) plates were analyzed as described below.
3-(4,5-dimethylthiazole-2-yl)-2,5-diphenyl-2H-tetrazolium bromide (thiazolyl blue; MTT; Sigma) was added to each well to yield a final concentration of 1 mg/ml. Plates were returned to the incubator for 2.5-3 hours at 37° C. The MTT-containing medium was removed and the resulting formazan metabolite was solubilized in 100% ethanol with shaking for 15 minutes at room temperature. Absorbance readings were taken in a microtiter plate reader (Dynatech and Molecular Devices plate readers were used interchangeably) at a wavelength of 570 nm with a 650 nm reference. Percent inhibition (% INH) is calculated by subtracting the absorbance of the blank well from all wells, then subtracting the ratio of the average absorbance of each test duplicate (SAVE) by the average of the controls (CAVE) from 1.00. The final number is then multiplied by 100 (% INH=(1.00−SAVE/CAVE)×100).

Another experiment has as its target human cyclin B-CDK1 (Homo sapiens, UniProt P06493). As to the kind of experiment: FlashPlate kinase assay, cyclin B-CDK1. It counts as biochemical. The conditions noted are these: Rb protein substrate, 1 μM ATP. Here is the method: as §1, §2, §3, §4
A further experiment deals with human cyclin D1-CDK4 (Homo sapiens, UniProt P11802). Nature of the experiment: FlashPlate kinase assay, cyclin D1-CDK4. In kind it is biochemical. Particulars: Rb protein substrate, 1 μM ATP. On the procedure:
as §1, §2, §3, §4

Sequence of human cyclin B-CDK1 (P06493 whole entry): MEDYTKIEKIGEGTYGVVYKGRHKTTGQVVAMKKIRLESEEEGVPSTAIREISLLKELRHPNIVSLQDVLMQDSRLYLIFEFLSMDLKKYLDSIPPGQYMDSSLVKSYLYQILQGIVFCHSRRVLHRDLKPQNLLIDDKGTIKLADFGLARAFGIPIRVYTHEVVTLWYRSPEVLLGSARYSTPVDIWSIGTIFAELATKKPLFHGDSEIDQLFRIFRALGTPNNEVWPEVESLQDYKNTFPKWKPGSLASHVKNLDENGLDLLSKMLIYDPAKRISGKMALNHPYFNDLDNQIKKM
Sequence of human cyclin B-CDK1 (P14635 whole entry partner): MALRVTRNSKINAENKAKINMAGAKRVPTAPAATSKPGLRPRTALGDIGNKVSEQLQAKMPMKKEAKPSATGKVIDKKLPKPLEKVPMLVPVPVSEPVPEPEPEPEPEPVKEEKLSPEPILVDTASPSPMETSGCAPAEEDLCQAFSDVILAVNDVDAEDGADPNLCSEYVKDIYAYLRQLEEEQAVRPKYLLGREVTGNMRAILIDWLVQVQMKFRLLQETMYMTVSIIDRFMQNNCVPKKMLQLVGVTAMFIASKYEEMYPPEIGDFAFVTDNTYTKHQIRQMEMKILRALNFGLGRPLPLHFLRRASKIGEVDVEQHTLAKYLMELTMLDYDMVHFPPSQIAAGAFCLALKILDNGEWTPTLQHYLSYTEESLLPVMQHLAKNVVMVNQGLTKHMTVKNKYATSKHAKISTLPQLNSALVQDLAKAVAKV
Sequence of human cyclin D1-CDK4 (P11802 whole entry): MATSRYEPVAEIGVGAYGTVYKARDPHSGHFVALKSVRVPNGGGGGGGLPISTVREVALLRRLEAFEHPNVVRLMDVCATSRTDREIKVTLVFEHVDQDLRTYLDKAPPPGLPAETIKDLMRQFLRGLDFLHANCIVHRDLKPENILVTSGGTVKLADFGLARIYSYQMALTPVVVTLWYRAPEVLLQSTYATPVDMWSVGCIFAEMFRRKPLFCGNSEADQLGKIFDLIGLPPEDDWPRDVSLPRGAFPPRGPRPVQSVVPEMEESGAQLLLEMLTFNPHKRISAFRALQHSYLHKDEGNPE
Sequence of human cyclin D1-CDK4 (P24385 whole entry partner): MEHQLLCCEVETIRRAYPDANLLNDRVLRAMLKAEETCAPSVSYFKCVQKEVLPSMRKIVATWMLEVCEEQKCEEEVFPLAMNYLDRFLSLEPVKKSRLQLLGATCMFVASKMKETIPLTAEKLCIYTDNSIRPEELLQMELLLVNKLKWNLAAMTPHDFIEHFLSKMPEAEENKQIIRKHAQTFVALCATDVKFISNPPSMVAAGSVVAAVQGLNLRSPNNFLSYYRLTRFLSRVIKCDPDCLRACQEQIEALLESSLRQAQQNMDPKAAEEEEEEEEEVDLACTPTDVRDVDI

As for `CN1CCN(c2ccc(Nc3nc(N)c(C(=O)c4ccc(N5CCCC(CO)C5)c([N+](=O)[O-])c4)s3)cc2)CC1` (racemic) [Example 61, [4-Amino-2-[[4-(4-methyl-1-piperazinyl)phenyl]amino]-5-thiazolyl][3-nitro-4-[3-(hydroxymethyl)-1-piperidinyl]phenyl]methanone], the 50% inhibitory concentration (IC50) – broadly, the concentration that gives 50% inhibition – came to 2.3 µM against human cyclin E-CDK2, 3.9 µM in the experiment with HCT116, 3.5 µM at human cyclin B-CDK1 and 0.012 µM on human cyclin D1-CDK4.

Consider `CC1CCCN1c1ccc(C(=O)c2sc(Nc3ccc(N4CCN(C)CC4)cc3)nc2N)cc1[N+](=O)[O-]` (racemic) [Example 62, [4-Amino-2-[[4-(4-methyl-1-piperazinyl)phenyl]amino]-5-thiazolyl][3-nitro-4-(2-methyl-1-pyrrolidinyl)phenyl]methanone], for which the IC50 at human cyclin E-CDK2 came to 5.9 µM; in the experiment with HCT116, 4.4 µM; on human cyclin B-CDK1 it was 10 µM; on human cyclin D1-CDK4 it was 0.044 µM.

In the case of `CN1CCN(c2ccc(Nc3nc(N)c(C(=O)c4ccc5c(c4)OCCO5)s3)cc2)CC1` [Example 24, [4-Amino-2-[[4-(4-methyl-1-piperazinyl)phenyl]amino]-5-thiazolyl](2,3-dihydro-1,4-benzodioxin-6-yl)methanone], the concentration for half-maximal inhibition (IC50) at human cyclin E-CDK2 amounted to 4.3 µM; in the experiment on HCT116 it was 3.9 µM; against human cyclin B-CDK1 it was 2.5 µM; against human cyclin D1-CDK4, 0.02 µM.

In the case of `CN1CCN(c2ccc(Nc3nc(N)c(C(=O)c4ccc5c(c4)OCO5)s3)cc2)CC1` [Example 25, [4-Amino-2-[[4-(4-methyl-1-piperazinyl)phenyl]amino]-5-thiazolyl](1,3-benzodioxol-5-yl)methanone], the IC50 on human cyclin E-CDK2 is 3.5 µM; in the experiment on HCT116, 3.5 µM; on human cyclin B-CDK1, 0.5 µM; at human cyclin D1-CDK4, 0.018 µM.

Turning to `CN1CCN(c2ccc(Nc3nc(N)c(C(=O)c4ccc(N5CCCC5)cc4)s3)cc2)CC1` [Example 26, [4-Amino-2-[[4-(4-methyl-1-piperazinyl)phenyl]amino]-5-thiazolyl][4-(1-pyrrolidinyl)phenyl]methanone], the IC50 at human cyclin E-CDK2 turned out to be 6.2 µM; in the experiment on HCT116, 5.6 µM; against human cyclin B-CDK1, 9 µM; against human cyclin D1-CDK4 it was 0.059 µM.

In the case of `CN1CCN(c2ccc(Nc3nc(N)c(C(=O)c4ccc(N5CCCCC5)cc4)s3)cc2)CC1` [Example 27, [4-Amino-2-[[4-(4-methyl-1-piperazinyl)phenyl]amino]-5-thiazolyl][4-(1-piperidinyl)phenyl]methanone], the IC50 amounted to 9.4 µM at human cyclin E-CDK2, 9.1 µM in the experiment on HCT116, 20.1 µM against human cyclin B-CDK1 and 0.004 µM against human cyclin D1-CDK4.

Turning to `CN1CCN(c2ccc(Nc3nc(N)c(C(=O)c4ccc(N5CCOCC5)cc4)s3)cc2)CC1` [Example 28, [4-Amino-2-[[4-(4-methyl-1-piperazinyl)phenyl]amino]-5-thiazolyl][4-(4-morpholinyl)phenyl]methanone], the IC50 against human cyclin E-CDK2 was found to be 22.2 µM; with HCT116, 9.5 µM; against human cyclin B-CDK1, 9.2 µM; against human cyclin D1-CDK4, 0.017 µM.

As for `CN1CCN(c2ccc(Nc3nc(N)c(C(=O)c4ccc5c(c4)OCCCO5)s3)cc2)CC1` [Example 29, [4-Amino-2-[[4-(4-methyl-1-piperazinyl)phenyl]amino]-5-thiazolyl](3,4-dihydro-2H-1,5-benzodioxepin-7-yl)methanone], the half-inhibitory concentration (IC50) against human cyclin E-CDK2 worked out at 9.6 µM; with HCT116 it was 9.5 µM; against human cyclin B-CDK1, 15.9 µM; against human cyclin D1-CDK4, 0.103 µM.

`CN1CCN(c2ccc(Nc3nc(N)c(C(=O)c4ccc(O)cc4)s3)cc2)CC1` [Example 30, [4-Amino-2-[[4-(4-methyl-1-piperazinyl)phenyl]amino]-5-thiazolyl]-(4-hydroxyphenyl)methanone]: the IC50 amounted to 2.3 µM at human cyclin E-CDK2, 3.6 µM with HCT116, 2.4 µM on human cyclin B-CDK1 and 0.053 µM against human cyclin D1-CDK4.

Consider `CN1CCN(c2ccc(Nc3nc(N)c(C(=O)c4cccc([N+](=O)[O-])c4)s3)cc2)CC1` [Example 31, [4-Amino-2-[[4-(4-methyl-1-piperazinyl)phenyl]amino]-5-thiazolyl](3-nitrophenyl)methanone], for which the IC50 on human cyclin E-CDK2 stood at 2.3 µM; in the experiment on HCT116, 4.1 µM; at human cyclin B-CDK1 it was 0.5 µM; against human cyclin D1-CDK4, 0.026 µM.

In the case of `COc1ccc(C(=O)c2sc(Nc3ccc(N4CCN(C)CC4)cc3)nc2N)cc1` [Example 32, [4-Amino-2-[[4-(4-methyl-1-piperazinyl)phenyl]amino]-5-thiazolyl](4-methoxyphenyl)methanone], the 50% inhibitory concentration (IC50) on human cyclin E-CDK2 stood at 9.6 µM; in the experiment with HCT116, 5.6 µM; at human cyclin B-CDK1, 3.9 µM; against human cyclin D1-CDK4, 0.08 µM.

On to `CCN(CC)c1ccc(C(=O)c2sc(Nc3ccc(N4CCN(C)CC4)cc3)nc2N)cc1` [Example 33, [4-Amino-2-[[4-(4-methyl-1-piperazinyl)phenyl]amino]-5-thiazolyl][4-(diethylamino)phenyl]methanone], for which the half-inhibitory concentration (IC50) on human cyclin E-CDK2 worked out at 6.5 µM; in the experiment on HCT116 it was 9.2 µM; against human cyclin B-CDK1 it was 6.1 µM; against human cyclin D1-CDK4 it was 0.008 µM.

On to `CN1CCN(c2ccc(Nc3nc(N)c(C(=O)c4ccc5oc6ccccc6c5c4)s3)cc2)CC1` [Example 34, [4-Amino-2-[[4-(4-methyl-1-piperazinyl)phenyl]amino]-5-thiazolyl](2-dibenzofuranyl)methanone], for which the concentration for half-maximal inhibition (IC50) at human cyclin E-CDK2 was 6.1 µM; with HCT116 it was 3.8 µM; on human cyclin B-CDK1, 11.7 µM; on human cyclin D1-CDK4 it was 0.049 µM.

Take `COc1ccc(C(=O)c2sc(Nc3ccc(N4CCN(C)CC4)cc3)nc2N)cc1F` [Example 35, [4-Amino-2-[[4-(4-methyl-1-piperazinyl)phenyl]amino]-5-thiazolyl](3-fluoro-4-methoxyphenyl)methanone]: the 50% inhibitory concentration (IC50) worked out at 1.8 µM against human cyclin E-CDK2, 1.8 µM in the experiment with HCT116, 1.1 µM against human cyclin B-CDK1 and 0.008 µM against human cyclin D1-CDK4.

`COc1cccc(C(=O)c2sc(Nc3ccc(N4CCN(C)CC4)cc3)nc2N)c1` [Example 36, [4-Amino-2-[[4-(4-methyl-1-piperazinyl)phenyl]amino]-5-thiazolyl](3-methoxyphenyl)methanone]: the IC50 against human cyclin E-CDK2 was determined as 5.4 µM; with HCT116, 2.8 µM; on human cyclin B-CDK1, 2.1 µM; against human cyclin D1-CDK4 it was 0.025 µM.

For the molecule `CN1CCN(c2ccc(Nc3nc(N)c(C(=O)c4ccc(Cl)c(Cl)c4)s3)cc2)CC1` [Example 37, [4-Amino-2-[[4-(4-methyl-1-piperazinyl)phenyl]amino]-5-thiazolyl](3,4-dichlorophenyl)methanone], the IC50 turned out to be 6.3 µM at human cyclin E-CDK2, 6.6 µM in the experiment on HCT116, 10 µM at human cyclin B-CDK1 and 0.073 µM against human cyclin D1-CDK4.

In the case of `CN1CCN(c2ccc(Nc3nc(N)c(C(=O)c4ccc5c(c4)OCO5)s3)cc2F)CC1` [Example 38, [4-Amino-2-[[3-fluoro-4-(4-methyl-1-piperazinyl)phenyl]amino]-5-thiazolyl](1,3-benzodioxol-5-yl)methanone], the IC50 against human cyclin E-CDK2 was 2.6 µM; in the experiment with HCT116, 1.9 µM; against human cyclin B-CDK1, 2 µM; against human cyclin D1-CDK4 it was 0.006 µM.
